This is an account of results in patent publication US10206394B2, “Herbicidal compounds” (Syngenta Participations AG, priority 2014, dated 2019).

Common to all, as to assay: Glasshouse assay for herbicidal activity (pre- and post-emergence), percentage phytotoxicity
Format in all cases: in vivo

One test deals with Avena fatua (AVEFA). The following applies: Avena fatua. An outline of the steps: (§1)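 Visually rated damage, 0–100%. PRE spray 1 d after sowing, scored 20 DAA; POST spray ~12 d, scored 15 DAA. Glasshouse at 65% humidity, 16 h day.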
The next test deals with Lolium perenne (LOLPE). The note with it: Lolium perenne. An outline of the steps: as §1
Test [1] concerns Alopecurus myosuroides (ALOMY). The following applies: Alopecurus myosuroides. An outline of the steps:
as §1

Test [2] relates to Echinochloa crus-galli (ECHCG). The note with it: Echinochloa crus-galli. An outline of the steps:
as §1

The mark [3] stands for this setting: post-emergence, 360 h, POST-emergence, rate 250 g/ha, visual score 15 DAA (100%=total damage, 0%=no damage), read-out: Post-emergence herbicidal activity (percentage phytotoxicity) AVEFA POST.
Where [4] appears, read: pre-emergence, 480 h, PRE-emergence, rate 250 g/ha, visual score 20 DAA (100%=total damage, 0%=no damage), read-out: Pre-emergence herbicidal activity (percentage phytotoxicity) AVEFA PRE.
Where [5] appears, read: post-emergence, 360 h, POST-emergence, rate 250 g/ha, visual score 15 DAA (100%=total damage, 0%=no damage), read-out: Post-emergence herbicidal activity (percentage phytotoxicity) LOLPE POST.
Where [6] appears, read: pre-emergence, 480 h, PRE-emergence, rate 250 g/ha, visual score 20 DAA (100%=total damage, 0%=no damage), read-out: Pre-emergence herbicidal activity (percentage phytotoxicity) LOLPE PRE.
The mark [7] stands for this setting: post-emergence, 360 h, POST-emergence, rate 250 g/ha, visual score 15 DAA (100%=total damage, 0%=no damage), read-out: Post-emergence herbicidal activity (percentage phytotoxicity) ALOMY POST.
Where [8] appears, read: pre-emergence, 480 h, PRE-emergence, rate 250 g/ha, visual score 20 DAA (100%=total damage, 0%=no damage), read-out: Pre-emergence herbicidal activity (percentage phytotoxicity) ALOMY PRE.
Setting [9] is: post-emergence, 360 h, POST-emergence, rate 250 g/ha, visual score 15 DAA (100%=total damage, 0%=no damage), read-out: Post-emergence herbicidal activity (percentage phytotoxicity) ECHCG POST.
Where [10] appears, read: pre-emergence, 480 h, PRE-emergence, rate 250 g/ha, visual score 20 DAA (100%=total damage, 0%=no damage), read-out: Pre-emergence herbicidal activity (percentage phytotoxicity) ECHCG PRE.
[11] abbreviates: post-emergence, 360 h, Rate 250 g/ha, post-emergence, assessed visually 15 DAA, 100%=total damage, 0%=no damage, read-out: Post-emergence herbicidal activity (percentage phytotoxicity) AVEFA POST.
[12] abbreviates: post-emergence, 360 h, Rate 250 g/ha, post-emergence, assessed visually 15 DAA, 100%=total damage, 0%=no damage, read-out: Post-emergence herbicidal activity (percentage phytotoxicity) LOLPE POST.
Where [13] appears, read: post-emergence, 360 h, Rate 250 g/ha, post-emergence, assessed visually 15 DAA, 100%=total damage, 0%=no damage, read-out: Post-emergence herbicidal activity (percentage phytotoxicity) ALOMY POST.
[14] abbreviates: post-emergence, 360 h, Rate 250 g/ha, post-emergence, assessed visually 15 DAA, 100%=total damage, 0%=no damage, read-out: Post-emergence herbicidal activity (percentage phytotoxicity) ECHCG POST.

Structures are written as SMILES. Where two headings read alike, the source gives them in different places.

On to `C=CCNC(=O)CC1CC(=O)C(c2c(C)cc(/C=C/C)cc2C)C1=O` (stereo not shown) [Compound B246], for which the pest or weed control at 250 g/ha in the test on Avena fatua (AVEFA) (setting [3]) was determined as 100%; with Avena fatua (AVEFA) (setting [4]) it was 50%; in the test with Lolium perenne (LOLPE) (setting [5]), 100%; in the test on Lolium perenne (LOLPE) (setting [6]), 90%; in test [1] (setting [7]), 100%; in test [1] (setting [8]) it was 60%. For the same compound, the values for the pest or weed control at 250 g/ha in test [2] (setting [9]) and in test [2] (setting [10]) were 100% and 70%, respectively.
With `Cc1cc(C)c(C2C(=O)CC(CC(=O)NCc3ccccc3C)C2=O)c(C)c1` (stereo not shown) [Compound B12], the pest or weed control at 250 g/ha in the test on Avena fatua (AVEFA) (post-emergence, 360 h, 250 g/ha, post-emergence, 15 DAA, visual assessment (100%=total damage, 0%=no damage), read-out: Post-emergence herbicidal activity (percentage phytotoxicity) AVEFA POST) is 60%; in the test on Avena fatua (AVEFA) (pre-emergence, 480 h, 250 g/ha, pre-emergence, 20 DAA, visual assessment (100%=total damage, 0%=no damage), read-out: Pre-emergence herbicidal activity (percentage phytotoxicity) AVEFA PRE), 30%; in the test on Lolium perenne (LOLPE) (post-emergence, 360 h, 250 g/ha, post-emergence, 15 DAA, visual assessment (100%=total damage, 0%=no damage), read-out: Post-emergence herbicidal activity (percentage phytotoxicity) LOLPE POST) it was 90%; in the test on Lolium perenne (LOLPE) (pre-emergence, 480 h, 250 g/ha, pre-emergence, 20 DAA, visual assessment (100%=total damage, 0%=no damage), read-out: Pre-emergence herbicidal activity (percentage phytotoxicity) LOLPE PRE), 90%; in test [1] (post-emergence, 360 h, 250 g/ha, post-emergence, 15 DAA, visual assessment (100%=total damage, 0%=no damage), read-out: Post-emergence herbicidal activity (percentage phytotoxicity) ALOMY POST) it was 60%; in test [1] (pre-emergence, 480 h, 250 g/ha, pre-emergence, 20 DAA, visual assessment (100%=total damage, 0%=no damage), read-out: Pre-emergence herbicidal activity (percentage phytotoxicity) ALOMY PRE), 70%. Also, the pest or weed control at 250 g/ha in test [2] (post-emergence, 360 h, 250 g/ha, post-emergence, 15 DAA, visual assessment (100%=total damage, 0%=no damage), read-out: Post-emergence herbicidal activity (percentage phytotoxicity) ECHCG POST) came out at 90%; in test [2] (pre-emergence, 480 h, 250 g/ha, pre-emergence, 20 DAA, visual assessment (100%=total damage, 0%=no damage), read-out: Pre-emergence herbicidal activity (percentage phytotoxicity) ECHCG PRE), 100%.
As to `COCC(C)(C)NC(=O)CC1CC(=O)C(c2c(C)cc(-c3ccc(Cl)cn3)cc2C)C1=O` (stereo not shown) [Compound B364], the pest or weed control at 250 g/ha in the test with Avena fatua (AVEFA) (post-emergence, 360 h, Rate 250 g/ha, post-emergence, visual assessment 15 DAA, 100%=total damage, 0%=no damage, read-out: Post-emergence herbicidal activity (percentage phytotoxicity) AVEFA POST) was 90%; with Avena fatua (AVEFA) (pre-emergence, 480 h, Rate 250 g/ha, pre-emergence, visual assessment 20 DAA, 100%=total damage, 0%=no damage, read-out: Pre-emergence herbicidal activity (percentage phytotoxicity) AVEFA PRE) it was 80%; in the test on Lolium perenne (LOLPE) (post-emergence, 360 h, Rate 250 g/ha, post-emergence, visual assessment 15 DAA, 100%=total damage, 0%=no damage, read-out: Post-emergence herbicidal activity (percentage phytotoxicity) LOLPE POST) it was 90%; with Lolium perenne (LOLPE) (pre-emergence, 480 h, Rate 250 g/ha, pre-emergence, visual assessment 20 DAA, 100%=total damage, 0%=no damage, read-out: Pre-emergence herbicidal activity (percentage phytotoxicity) LOLPE PRE) it was 90%; in test [1] (post-emergence, 360 h, Rate 250 g/ha, post-emergence, visual assessment 15 DAA, 100%=total damage, 0%=no damage, read-out: Post-emergence herbicidal activity (percentage phytotoxicity) ALOMY POST), 100%; in test [1] (pre-emergence, 480 h, Rate 250 g/ha, pre-emergence, visual assessment 20 DAA, 100%=total damage, 0%=no damage, read-out: Pre-emergence herbicidal activity (percentage phytotoxicity) ALOMY PRE) it was 100%. The pest or weed control at 250 g/ha in test [2] (post-emergence, 360 h, Rate 250 g/ha, post-emergence, visual assessment 15 DAA, 100%=total damage, 0%=no damage, read-out: Post-emergence herbicidal activity (percentage phytotoxicity) ECHCG POST) worked out at 90%; in test [2] (pre-emergence, 480 h, Rate 250 g/ha, pre-emergence, visual assessment 20 DAA, 100%=total damage, 0%=no damage, read-out: Pre-emergence herbicidal activity (percentage phytotoxicity) ECHCG PRE), 90%.
As for `Cc1cc(C)c(C2C(=O)CC(CC(N)=O)C2=O)c(C)c1` (stereo not shown) [Compound A187], the pest or weed control at 250 g/ha came out at 100% in the test with Avena fatua (AVEFA) (post-emergence, 360 h, post-emergence, 250 g/ha, 15 DAA, visual score (100%=total damage; 0%=no damage), read-out: AVEFA POST herbicidal activity (percentage phytotoxicity)); 90% in the test with Avena fatua (AVEFA) (pre-emergence, 480 h, pre-emergence, 250 g/ha, 20 DAA, visual score (100%=total damage; 0%=no damage), read-out: AVEFA PRE herbicidal activity (percentage phytotoxicity)); 90% with Lolium perenne (LOLPE) (post-emergence, 360 h, post-emergence, 250 g/ha, 15 DAA, visual score (100%=total damage; 0%=no damage), read-out: LOLPE POST herbicidal activity (percentage phytotoxicity)); 100% in the test on Lolium perenne (LOLPE) (pre-emergence, 480 h, pre-emergence, 250 g/ha, 20 DAA, visual score (100%=total damage; 0%=no damage), read-out: LOLPE PRE herbicidal activity (percentage phytotoxicity)); 80% in test [1] (post-emergence, 360 h, post-emergence, 250 g/ha, 15 DAA, visual score (100%=total damage; 0%=no damage), read-out: ALOMY POST herbicidal activity (percentage phytotoxicity)); 80% in test [1] (pre-emergence, 480 h, pre-emergence, 250 g/ha, 20 DAA, visual score (100%=total damage; 0%=no damage), read-out: ALOMY PRE herbicidal activity (percentage phytotoxicity)). The pest or weed control at 250 g/ha in test [2] (post-emergence, 360 h, post-emergence, 250 g/ha, 15 DAA, visual score (100%=total damage; 0%=no damage), read-out: ECHCG POST herbicidal activity (percentage phytotoxicity)) turned out to be 100%; in test [2] (pre-emergence, 480 h, pre-emergence, 250 g/ha, 20 DAA, visual score (100%=total damage; 0%=no damage), read-out: ECHCG PRE herbicidal activity (percentage phytotoxicity)), 90%.
As for `Cc1cc(C)c(C2C(=O)CC(CC(=O)NC3CCC(C)CC3C)C2=O)c(C)c1` (stereo not shown) [Compound A103], the pest or weed control at 250 g/ha was determined as 10% with Avena fatua (AVEFA) (setting [11]), 20% in the test with Lolium perenne (LOLPE) (setting [12]), 60% in test [1] (setting [13]) and 20% in test [2] (setting [14]).
On to `COCC(C)NC(=O)CC1CC(=O)C(c2c(C)cc(-c3ncc(F)cn3)cc2C)C1=O` (stereo not shown) [Compound B332], for which the pest or weed control at 250 g/ha (in the test on Avena fatua (AVEFA) (setting [3]); with Avena fatua (AVEFA) (setting [4]); with Lolium perenne (LOLPE) (setting [5]); with Lolium perenne (LOLPE) (setting [6]); in test [1] (setting [7]); in test [1] (setting [8])) was 100% each time. The pest or weed control at 250 g/ha in test [2] (setting [9]) and in test [2] (setting [10]) was 100% each time.
As for `Cc1cc(-c2ncc(Cl)cn2)cc(C)c1C1C(=O)CC(CC(=O)NC(C)(C)C)C1=O` (stereo not shown) [Compound A40], the pest or weed control at 250 g/ha in the test with Avena fatua (AVEFA) (setting [11]) is 100%; with Avena fatua (AVEFA) (pre-emergence, 480 h, Rate 250 g/ha, pre-emergence, assessed visually 20 DAA, 100%=total damage, 0%=no damage, read-out: Pre-emergence herbicidal activity (percentage phytotoxicity) AVEFA PRE), 90%; with Lolium perenne (LOLPE) (setting [12]) it was 100%; in the test on Lolium perenne (LOLPE) (pre-emergence, 480 h, Rate 250 g/ha, pre-emergence, assessed visually 20 DAA, 100%=total damage, 0%=no damage, read-out: Pre-emergence herbicidal activity (percentage phytotoxicity) LOLPE PRE), 100%; in test [1] (setting [13]), 100%; in test [1] (pre-emergence, 480 h, Rate 250 g/ha, pre-emergence, assessed visually 20 DAA, 100%=total damage, 0%=no damage, read-out: Pre-emergence herbicidal activity (percentage phytotoxicity) ALOMY PRE), 100%. Also, the pest or weed control at 250 g/ha was 100% in test [2] (setting [14]) and 100% in test [2] (pre-emergence, 480 h, Rate 250 g/ha, pre-emergence, assessed visually 20 DAA, 100%=total damage, 0%=no damage, read-out: Pre-emergence herbicidal activity (percentage phytotoxicity) ECHCG PRE).
